What was measured:
Format in all cases: in vivo
Spodoptera littoralis [1] = test: Spodoptera littoralis (Egyptian cotton leaf worm), uptake by lettuce roots from agar; conditions: 144 h, read-out: effect in at least one of the three categories (mortality, anti-feeding, or growth inhibition);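 note: 12.5 ppm test rate in agar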
Summary of the method: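 Compound from 10'000 ppm DMSO stocks was mixed into agar, and lettuce grew on it for 7 days to take it up via roots. Cut leaves were infested with Spodoptera eggs; mortality, anti-feedant effect and growth inhibition scored 6 days later versus untreated samples.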

Spodoptera littoralis [2] = test: Spodoptera littoralis (Egyptian cotton leaf worm), sprayed cotton leaf discs; conditions: foliar, 72 h, application rate 200 ppm, L1 larvae, 3 days after infestation, read-out: control (mortality, anti-feeding effect, growth inhibition)
Summary of the method: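 Cotton leaf discs on agar sprayed with aqueous test solutions made from 10'000 ppm DMSO stock; after drying, infested with five L1 larvae. Mortality, anti-feeding and growth inhibition scored versus untreated samples 3 days after infestation; control counted when any category exceeds untreated.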

Tetranychus urticae = Tetranychus urticae (two-spotted spider mite): feeding/contact activity; conditions: 192 h, application rate 200 ppm, mixed population (mobile stages), 8 days after infestation, read-out: mortality
Description: Bean leaf discs on agar in 24-well microtiter plates were sprayed with aqueous test solutions prepared from 10'000 ppm DMSO stock solutions. After drying the leaf discs were infested with a mite population of mixed ages. The samples were assessed for mortality on mixed population (mobile stages) 8 days after infestation.

Diabrotica balteata = Diabrotica balteata (corn root worm), sprayed maize sprouts; conditions: 96 h, application rate 200 ppm, L2 larvae, 4 days after infestation, read-out: effect in at least one of the two categories (mortality or growth inhibition)
Summary of the method: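 Maize sprouts on agar sprayed with aqueous dilutions of DMSO stocks, dried, then infested with L2 larvae (6–10 per well). Mortality and growth inhibition scored against untreated controls 4 days after infestation, at 200 ppm application rate.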

Thrips tabaci = Thrips tabaci (onion thrips): feeding/contact activity; conditions: 144 h, application rate 200 ppm, Thrips population of mixed ages, 6 days after infestation, read-out: mortality
Description: Sunflower leaf discs were placed on agar in 24-well microtiter plates and sprayed with aqueous test solutions prepared from 10'000 ppm DMSO stock solutions. After drying the leaf discs were infested with a Thrips population of mixed ages. The samples were assessed for mortality 6 days after infestation.

Myzus persicae = Myzus persicae (green peach aphid): feeding/contact activity; conditions: 144 h, application rate 200 ppm, aphid population of mixed ages, 6 days after infestation, read-out: mortality
Description: Sunflower leaf discs were placed onto agar in a 24-well microtiter plate and sprayed with aqueous test solutions prepared from 10'000 ppm DMSO stock solutions. After drying, the leaf discs were infested with an aphid population of mixed ages. The samples were assessed for mortality 6 days after infestation.

Plutella xylostella = Plutella xylostella (diamond back moth), artificial diet; conditions: 120 h, application rate 200 ppm, L2 larvae, 5 days after infestation, read-out: effect in at least one of the two categories (mortality or growth inhibition)
Summary of the method: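 Artificial diet in 24-well plates treated with aqueous test solutions made from 10'000 ppm DMSO stocks, dried, then infested with L2 larvae (10 to 15 per well). Mortality and growth inhibition scored against untreated samples 5 days after infestation; activity cut-off at least 80% in either category at 200 ppm.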

Euschistus heros = Euschistus heros (neotropical brown stink bug), sprayed soybean leaves; conditions: 120 h, application rate 200 ppm, N2 nymphs, 5 days after infestation, read-out: effect in at least one of the two categories (mortality or growth inhibition)
Summary of the method: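 Soybean leaves on agar sprayed with aqueous dilutions of DMSO stocks, dried, then infested with N2 nymphs. Mortality and growth inhibition scored against untreated samples 5 days after infestation; application rate 200 ppm.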

CCNS(=O)(=O)N1C[C@@H](NC(=O)c2ccc(C3=NO[C@@](c4cc(Cl)cc(C(F)(F)F)c4)(C(F)(F)F)C3)cc2Cl)CO1 [Compound A128]
≥ 80%: percent control (mortality, anti-feedant effect or growth inhibition) at 12.5 ppm (Spodoptera littoralis [1]) | mortality at 200 ppm (Spodoptera littoralis [2]) | mortality at 200 ppm (Tetranychus urticae) | percent effect (mortality or growth inhibition) at 200 ppm (Diabrotica balteata) | mortality at 200 ppm (Thrips tabaci) | mortality at 200 ppm (Myzus persicae) | percent effect (mortality or growth inhibition) at 200 ppm (Plutella xylostella) | percent effect (mortality or growth inhibition) at 200 ppm (Euschistus heros)

Cc1cc(C2=NO[C@@](c3cc(Cl)c(F)c(Cl)c3)(C(F)(F)F)C2)ccc1C(=O)NC1CON(S(=O)(=O)NC(C)(C)C)C1 (stereo partly drawn) [Compound A97]
≥ 80%: percent control (mortality, anti-feedant effect or growth inhibition) at 12.5 ppm (Spodoptera littoralis [1]) | mortality at 200 ppm (Spodoptera littoralis [2]) | mortality at 200 ppm (Tetranychus urticae) | percent effect (mortality or growth inhibition) at 200 ppm (Diabrotica balteata) | mortality at 200 ppm (Thrips tabaci) | mortality at 200 ppm (Myzus persicae) | percent effect (mortality or growth inhibition) at 200 ppm (Plutella xylostella) | percent effect (mortality or growth inhibition) at 200 ppm (Euschistus heros)

CCS(=O)(=O)N1C[C@@H](NC(=O)c2ccc(C3=NO[C@@](c4cc(Cl)cc(Cl)c4)(C(F)(F)F)C3)cc2Cl)CO1 [Compound A117]
≥ 80%: percent control (mortality, anti-feedant effect or growth inhibition) at 12.5 ppm (Spodoptera littoralis [1]) | mortality at 200 ppm (Spodoptera littoralis [2]) | mortality at 200 ppm (Tetranychus urticae) | percent effect (mortality or growth inhibition) at 200 ppm (Diabrotica balteata) | mortality at 200 ppm (Thrips tabaci) | mortality at 200 ppm (Myzus persicae) | percent effect (mortality or growth inhibition) at 200 ppm (Plutella xylostella) | percent effect (mortality or growth inhibition) at 200 ppm (Euschistus heros)

CCN(CC)S(=O)(=O)N1CC(NC(=O)c2ccc(C3=NO[C@@](c4cc(Cl)c(F)c(Cl)c4)(C(F)(F)F)C3)cc2C)CO1 (stereo partly drawn) [Compound A98, 4-[(5S)-5-(3,5-dichloro-4-fluoro-phenyl)-5-(trifluoromethyl)-4H-isoxazol-3-yl]-N-[2-(diethylsulfamoyl)isoxazolidin-4-yl]-2-methyl-benzamide]
≥ 80%: percent control (mortality, anti-feedant effect or growth inhibition) at 12.5 ppm (Spodoptera littoralis [1]) | mortality at 200 ppm (Spodoptera littoralis [2]) | mortality at 200 ppm (Tetranychus urticae) | percent effect (mortality or growth inhibition) at 200 ppm (Diabrotica balteata) | mortality at 200 ppm (Thrips tabaci) | mortality at 200 ppm (Myzus persicae) | percent effect (mortality or growth inhibition) at 200 ppm (Plutella xylostella) | percent effect (mortality or growth inhibition) at 200 ppm (Euschistus heros)

Cc1cc(C2=NO[C@@](c3cc(Cl)cc(Cl)c3)(C(F)(F)F)C2)ccc1C(=O)N[C@H]1CON(S(=O)(=O)N(C)C)C1 [Compound A39]
≥ 80%: percent control (mortality, anti-feedant effect or growth inhibition) at 12.5 ppm (Spodoptera littoralis [1]) | mortality at 200 ppm (Spodoptera littoralis [2]) | mortality at 200 ppm (Tetranychus urticae) | percent effect (mortality or growth inhibition) at 200 ppm (Diabrotica balteata) | mortality at 200 ppm (Thrips tabaci) | mortality at 200 ppm (Myzus persicae) | percent effect (mortality or growth inhibition) at 200 ppm (Plutella xylostella) | percent effect (mortality or growth inhibition) at 200 ppm (Euschistus heros)

CCS(=O)(=O)N1C[C@@H](NC(=O)c2ccc(C3=NO[C@@](c4cc(Cl)c(F)c(Cl)c4)(C(F)(F)F)C3)cc2C)CO1 [Compound A119]
≥ 80%: percent control (mortality, anti-feedant effect or growth inhibition) at 12.5 ppm (Spodoptera littoralis [1]) | mortality at 200 ppm (Spodoptera littoralis [2]) | mortality at 200 ppm (Tetranychus urticae) | percent effect (mortality or growth inhibition) at 200 ppm (Diabrotica balteata) | mortality at 200 ppm (Thrips tabaci) | mortality at 200 ppm (Myzus persicae) | percent effect (mortality or growth inhibition) at 200 ppm (Plutella xylostella) | percent effect (mortality or growth inhibition) at 200 ppm (Euschistus heros)

CCN(C)S(=O)(=O)N1CC(NC(=O)c2ccc(C3=NO[C@@](c4cc(Cl)c(Cl)c(Cl)c4)(C(F)(F)F)C3)cc2C)CO1 (stereo partly drawn) [Compound A73, N-[2-[ethyl(methyl)sulfamoyl]isoxazolidin-4-yl]-2-methyl-4-[(5S)-5-(3,4,5-trichlorophenyl)-5-(trifluoromethyl)-4H-isoxazol-3-yl]benzamide]
≥ 80%: percent control (mortality, anti-feedant effect or growth inhibition) at 12.5 ppm (Spodoptera littoralis [1]) | mortality at 200 ppm (Spodoptera littoralis [2]) | mortality at 200 ppm (Tetranychus urticae) | percent effect (mortality or growth inhibition) at 200 ppm (Diabrotica balteata) | mortality at 200 ppm (Thrips tabaci) | mortality at 200 ppm (Myzus persicae) | percent effect (mortality or growth inhibition) at 200 ppm (Plutella xylostella) | percent effect (mortality or growth inhibition) at 200 ppm (Euschistus heros)

CCS(=O)(=O)N1C[C@@H](NC(=O)c2ccc(C3=NO[C@@](c4cc(Cl)c(F)c(Cl)c4)(C(F)(F)F)C3)cc2Cl)CO1 [Compound A146]
≥ 80%: percent control (mortality, anti-feedant effect or growth inhibition) at 12.5 ppm (Spodoptera littoralis [1]) | mortality at 200 ppm (Spodoptera littoralis [2]) | mortality at 200 ppm (Tetranychus urticae) | percent effect (mortality or growth inhibition) at 200 ppm (Diabrotica balteata) | mortality at 200 ppm (Thrips tabaci) | mortality at 200 ppm (Myzus persicae) | percent effect (mortality or growth inhibition) at 200 ppm (Plutella xylostella) | percent effect (mortality or growth inhibition) at 200 ppm (Euschistus heros)

CCNS(=O)(=O)N1C[C@@H](NC(=O)c2ccc(C3=NO[C@@](c4cc(Cl)c(Cl)c(Cl)c4)(C(F)(F)F)C3)cc2C)CO1 [Compound A136, N-[(4R)-2-(ethylsulfamoyl)isoxazolidin-4-yl]-2-methyl-4-[(5S)-5-(3,4,5-trichlorophenyl)-5-(trifluoromethyl)-4H-isoxazol-3-yl]benzamide]
≥ 80%: percent control (mortality, anti-feedant effect or growth inhibition) at 12.5 ppm (Spodoptera littoralis [1]) | mortality at 200 ppm (Spodoptera littoralis [2]) | mortality at 200 ppm (Tetranychus urticae) | percent effect (mortality or growth inhibition) at 200 ppm (Diabrotica balteata) | mortality at 200 ppm (Thrips tabaci) | mortality at 200 ppm (Myzus persicae) | percent effect (mortality or growth inhibition) at 200 ppm (Plutella xylostella) | percent effect (mortality or growth inhibition) at 200 ppm (Euschistus heros)

Cc1cc(C2=NOC(c3cc(Cl)c(Br)c(Cl)c3)(C(F)(F)F)C2)ccc1C(=O)NC1CON(S(C)(=O)=O)C1 (stereo not drawn) [Compound A45]
≥ 80%: percent control (mortality, anti-feedant effect or growth inhibition) at 12.5 ppm (Spodoptera littoralis [1]) | mortality at 200 ppm (Spodoptera littoralis [2]) | mortality at 200 ppm (Tetranychus urticae) | percent effect (mortality or growth inhibition) at 200 ppm (Diabrotica balteata) | mortality at 200 ppm (Thrips tabaci) | mortality at 200 ppm (Myzus persicae) | percent effect (mortality or growth inhibition) at 200 ppm (Plutella xylostella) | percent effect (mortality or growth inhibition) at 200 ppm (Euschistus heros)

CCS(=O)(=O)N1C[C@@H](NC(=O)c2ccc(C3=NO[C@@](c4cc(Cl)cc(C(F)(F)F)c4)(C(F)(F)F)C3)cc2C)CO1 [Compound A120, 4-[(5S)-5-[3-chloro-5-(trifluoromethyl)phenyl]-5-(trifluoromethyl)-4H-isoxazol-3-yl]-N-[(4R)-2-ethylsulfonylisoxazolidin-4-yl]-2-methyl-benzamide]
≥ 80%: percent control (mortality, anti-feedant effect or growth inhibition) at 12.5 ppm (Spodoptera littoralis [1]) | mortality at 200 ppm (Spodoptera littoralis [2]) | mortality at 200 ppm (Tetranychus urticae) | percent effect (mortality or growth inhibition) at 200 ppm (Diabrotica balteata) | mortality at 200 ppm (Thrips tabaci) | mortality at 200 ppm (Myzus persicae) | percent effect (mortality or growth inhibition) at 200 ppm (Plutella xylostella) | percent effect (mortality or growth inhibition) at 200 ppm (Euschistus heros)

Cc1cc(C2=NO[C@@](c3cc(Cl)c(Cl)c(Cl)c3)(C(F)(F)F)C2)ccc1C(=O)N[C@H]1CON(S(N)(=O)=O)C1 [Compound A68, 2-methyl-N-[(4R)-2-sulfamoylisoxazolidin-4-yl]-4-[(5S)-5-(3,4,5-trichlorophenyl)-5-(trifluoromethyl)-4H-isoxazol-3-yl]benzamide]
≥ 80%: percent control (mortality, anti-feedant effect or growth inhibition) at 12.5 ppm (Spodoptera littoralis [1]) | mortality at 200 ppm (Spodoptera littoralis [2]) | mortality at 200 ppm (Tetranychus urticae) | percent effect (mortality or growth inhibition) at 200 ppm (Diabrotica balteata) | mortality at 200 ppm (Thrips tabaci) | mortality at 200 ppm (Myzus persicae) | percent effect (mortality or growth inhibition) at 200 ppm (Plutella xylostella) | percent effect (mortality or growth inhibition) at 200 ppm (Euschistus heros)

Source: US10588317B2, “Isoxazoline-substituted benzamides and analogues as insecticides” (priority 2015, dated 2020)
